Measurements taken from patent US20080026417A1, “ASSAYS FOR TRICHOMONAL AND OTHER HYDROLASES” (priority 2002, published 2008).
Peptide text beside a SMILES is read from it. * marks the point of attachment. AMC = Cc1cc(=O)oc2cc(N*)ccc12; Cbz = O=C(OCc1ccccc1)*; Boc = CC(C)(C)OC(=O)*

Tests used:
[1] = tested on: hydrolases present in whole normal vaginal fluid; assay: Experiment 2: hydrolysis of substrates by whole normal vaginal fluid, visual color score; type: biochemical, human; design: key: 0: Yellow; 1: Peach; 2: Orange; 3: Light to medium pink; 4: Dark pink or red; 5: Fuchsia; 6: Purple; conditions: visual 0-6 scale
Description: Due to the partial opacity of cells and other particulate matter in whole vaginal fluid, assays of hydrolase activity present in whole vaginal fluid were performed in 20 μL conical microwells and scored visually. The vaginal fluid from a single normal, uninfected donor was agitated to resuspend the particulate matter, and 2 μL aliquots of the vaginal fluid were mixed with 2 μL of each substrate/buffer combination. To retard evaporation from the wells, water was pipetted into the mini-tray adjacent to the wells prior to replacing the tray cover. Fifteen minutes later, 2 μL of indicator solution was added to each well. After another fifteen minutes, the color in each well was visually scored in 0.5-unit increments using the 0-6 scale presented in Table 2.1.

trichomonal hydrolases [2] = assay: Experiment 2: hydrolysis of substrates by trichomonal hydrolases with or without NVS, absorbance 540 nm; type: biochemical, Trichomonas vaginalis; conditions: absorbance at 540 nm per method; for Color Scores: Trichomonal hydrolases + NVS: 10% NVS
Description: Substrate solutions containing 8 mM of one of the four substrates (ZRR-MNA, BLRR-AMC, BLKR-AMC, ZKKR-AMC) in one of the two buffers (acetate, TRIS) were prepared by mixing 4 μL 100 mM substrate with 6 μL 6.3 mM L-cysteine, 14 μL 200 mM buffer and 26 μL water. Assays of trichomonal hydrolase activity, with or without the addition of NVS, were performed in 200 μL microwells. In one set of microwells, 10 μL of each substrate/buffer combination was mixed with 10 μL of undiluted trichomonal hydrolases. In a second set of microwells, 10 μL of each substrate/buffer combination was mixed with 10 μL of a mixture of 90% v/v trichomonal hydrolases and 10% NVS. Fifteen minutes later, 50 μL of indicator solution was added to each well. After another fifteen minutes, the absorbance of each solution in the wells was measured on a microtiter plate reader set on 540 nm wavelength.

trichomonal hydrolases [3] = assay: Experiment 6 part 2: inhibition of trichomonal hydrolases added to filtered vaginal fluid; type: biochemical, Trichomonas vaginalis; design: key: 0: Yellow; 1: Peach; 2: Orange; 3: Light to medium pink; 4: Dark pink or red; 5: Fuchsia; 6: Purple; conditions: ZRR-MNA, 20 μg/mL antipain or 1 mM chymostatin
Description: (§1) Substrate/inhibitor combinations were prepared by mixing 4 μL of 100 mM ZRR-MNA, 20 μL of 1M HEPES buffer, 56 μL of deionized water, and 20 μL of either antipain, chymostatin, or deionized water. Filtered vaginal fluid was prepared from each specimen as follows: the swab was placed in a cuvette containing 200 μL of diluent and the swab was rotated in the diluent to thoroughly mix the swab contents into the diluent. The swab was removed, the swab head was broken off into a microfuge tube, and the liquid remaining in the swab head was forced out by centrifugation. The fluid extracted from the swab was combined with the liquid in the cuvette, and the total volume of fluid was filtered using a centrifuge filter unit to remove particulate matter.
(§2) For each specimen, 4 μL of vaginal fluid filtrate was mixed with 4 μL of each of the three substrate/inhibitor combinations in separate microwells; one well contained 20 μg/mL antipain, one contained 1 mM chymostatin, and one had no inhibitor. After ten minutes, 4 μL of color developer solution was added to each well.
Trichomonal hydrolases were added to each of the filtered vaginal fluid specimens—10 μL of trichomonal hydrolase preparation added to 90 μL vaginal fluid filtrate—and the above experiment was repeated.

[4] = tested on: non-trichomonal hydrolases present in normal vaginal fluid supernatants; assay: Experiment 6 part 1: inhibition of non-trichomonal hydrolases in filtered normal vaginal fluid; type: biochemical, human; design: key: 0: Yellow; 1: Peach; 2: Orange; 3: Light to medium pink; 4: Dark pink or red; 5: Fuchsia; 6: Purple; conditions: uninfected, ZRR-MNA, 20 μg/mL antipain or 1 mM chymostatin
Description: as §1, §2

trichomonal hydrolases [5] = assay: Experiment 13: hydrolysis of peptide substrates by trichomonal hydrolases at low pH in vaginal fluid supernatant; type: biochemical, Trichomonas vaginalis; design: key: −: No red color produced; +: Clearly visible red color produced; ++: Moderately intense red color produced; +++: Very intense red color produced; conditions: Fast Garnet
Description: (§3) Forty μL of each substrate was pipetted into duplicate wells of a microtiter plate. The plate was covered with tape, placed into a 25° C. incubator, and allowed to warm. A diluted enzyme mixture was prepared by mixing one part (v/v) freshly-thawed trichomonal hydrolase solution to nine parts 2 mM L-cysteine solution. Forty μL of this mixture was added to one well of each pair of duplicate wells. For negative controls, 40 μL of 2 mM L-cysteine was added to the second well in each pair of duplicate wells. The plate was returned to the incubator and incubated for ten minutes. Forty μL of SDS/acetate solution was added to each well, followed by 40 μL of Fast Garnet solution. The intensity of color that developed in each well after five minutes was visually scored using the color scale presented in Table 13.1.
Of the nine substrates hydrolyzed by trichomonal hydrolases to produce an intense pink color (scoring ++ or +++) in the absence of vaginal fluid supernatant, only four produced intense pink color when vaginal fluid supernatant was present.

trichomonal hydrolases [6] = assay: Experiment 13: hydrolysis of peptide substrates by trichomonal hydrolases at low pH, no vaginal fluid; type: biochemical, Trichomonas vaginalis; design: key: −: No red color produced; +: Clearly visible red color produced; ++: Moderately intense red color produced; +++: Very intense red color produced; conditions: without vaginal fluid; threonine buffer pH 2.4; 2 mM substrate solution; 10 min 25° C.; Fast Garnet
Description: as §3

trichomonal hydrolases [7] = assay: Experiment 1: hydrolysis of substrates by trichomonal hydrolases at pH 2.8-9.2, with or without normal vaginal fluid supernatant (NVS), absorbance 540 nm; type: biochemical, Trichomonas vaginalis; conditions: for Absorbance Readings: 540 nm
Description: Assays without normal vaginal fluid supernatant present: Two sets of six wells in a microtiter plate were prepared, with each well containing 80 μL of one of the six 200 mM buffers, 10 μL of water and 10 μL of diluted trichomonal hydrolases. Ten μL of ZRR-MNA was added to each well in the first set of wells, and 10 μl of VLK-MNA was added to each well in the second set of wells. After fifteen minutes, 100 μl of indicator solution was added to each well. Because a high pH can reduce the intensity of color produced by the indicator solution, 50 μl of 100 mM acetic acid buffer, pH 3.7, was added to each well except the pH 2.8 wells (water was substituted for the acetic acid in those wells). After another fifteen minutes, the absorbance of the solutions in the wells was measured on a microtiter plate reader set on 540 nm wavelength.
Assays with normal vaginal fluid supernatant (NVS) present: The procedure of the preceding paragraph was followed, except that 10 μL of diluted NVS was added to the wells in place of the 10 μL of water.

SMILES: Cc1cc(=O)oc2cc(NC(=O)[C@H](CCCN=C(N)N)NC(=O)[C@H](CCCN=C(N)N)NC(=O)[C@H](CC(C)C)NC(=O)OC(C)(C)C)ccc12 [BLRR-AMC, BOC-Leu-Arg-Arg-AMC] (Boc-Leu-Arg-Arg-{AMC})
- Color Scores: Whole normal vaginal fluid ([1]; pH 5 acetate): 0.5
- Color Scores: Whole normal vaginal fluid ([1]; pH 8 TRIS): 6
- Color Scores: Trichomonal hydrolases + NVS (trichomonal hydrolases [2]; pH 5 acetate): 0.114
- Color Scores: Trichomonal hydrolases (trichomonal hydrolases [2]; pH 5 acetate): 0.536
- Color Scores: Trichomonal hydrolases + NVS (trichomonal hydrolases [2]; pH 8 TRIS): 0.568
- Color Scores: Trichomonal hydrolases (trichomonal hydrolases [2]; pH 8 TRIS): 0.463

SMILES: Cc1cc(=O)oc2cc(NC(=O)[C@H](CCCN=C(N)N)NC(=O)[C@H](CCCCN)NC(=O)[C@H](CC(C)C)NC(=O)OC(C)(C)C)ccc12 [BLKR-AMC, BOC-Leu-Lys-Arg-AMC] (Boc-Leu-Lys-Arg-{AMC})
- Color Scores: Whole normal vaginal fluid ([1]; pH 5 acetate): 0.5
- Color Scores: Whole normal vaginal fluid ([1]; pH 8 TRIS): 6
- Color Scores: Trichomonal hydrolases + NVS (trichomonal hydrolases [2]; pH 5 acetate): 0.123
- Color Scores: Trichomonal hydrolases (trichomonal hydrolases [2]; pH 5 acetate): 0.638
- Color Scores: Trichomonal hydrolases + NVS (trichomonal hydrolases [2]; pH 8 TRIS): 0.731
- Color Scores: Trichomonal hydrolases (trichomonal hydrolases [2]; pH 8 TRIS): 0.649

SMILES: CC(C)C[C@H](NC(=O)[C@@H](NC(=O)N[C@@H](Cc1ccccc1)C(=O)O)[C@@H]1CCN=C(N)N1)C(=O)N[C@H](C=O)Cc1ccccc1 [Chymostatin, chymostatin]
- Hydrolase activity color score with inhibitor (trichomonal hydrolases [3]; Donor A filtrate supplemented with trichomonal hydrolases): 3.5
- Hydrolase activity color score with inhibitor (trichomonal hydrolases [3]; Donor B filtrate supplemented with trichomonal hydrolases): 3.5
- Hydrolase activity color score with inhibitor (trichomonal hydrolases [3]; Donor C filtrate supplemented with trichomonal hydrolases): 3.5
- Hydrolase activity color score with inhibitor (trichomonal hydrolases [3]; Donor D filtrate supplemented with trichomonal hydrolases): 4
- Hydrolase activity color score with inhibitor (trichomonal hydrolases [3]; Donor E filtrate supplemented with trichomonal hydrolases): 3
- Hydrolase activity color score with inhibitor (trichomonal hydrolases [3]; Donor F filtrate supplemented with trichomonal hydrolases): 3
- Hydrolase activity color score with inhibitor ([4]; Donor A): 0
- Hydrolase activity color score with inhibitor ([4]; Donor B): 0
- Hydrolase activity color score with inhibitor ([4]; Donor C): 0
- Hydrolase activity color score with inhibitor ([4]; Donor D): 2
- Hydrolase activity color score with inhibitor ([4]; Donor E): 0
- Hydrolase activity color score with inhibitor ([4]; Donor F): 0

SMILES: COc1cc(NC(=O)[C@H](CCCN=C(N)N)NC(=O)[C@H](CCCN=C(N)N)NC(=O)OCc2ccccc2)cc2ccccc12 [ZRR-MNA, CBZ-Arg-Arg-MNA]
- Color Scores: Whole normal vaginal fluid ([1]; pH 5 acetate): 3
- Color Scores: Whole normal vaginal fluid ([1]; pH 8 TRIS): 4
- Color Score (trichomonal hydrolases [5]): +
- Color Scores: Trichomonal hydrolases + NVS (trichomonal hydrolases [2]; pH 5 acetate): 0.068
- Color Scores: Trichomonal hydrolases (trichomonal hydrolases [2]; pH 5 acetate): 0.420
- Color Scores: Trichomonal hydrolases + NVS (trichomonal hydrolases [2]; pH 8 TRIS): 0.182
- Color Scores: Trichomonal hydrolases (trichomonal hydrolases [2]; pH 8 TRIS): 0.385
- Color Score (trichomonal hydrolases [6]): ++
- color production relative to that observed when vaginal fluid was not present (trichomonal hydrolases [7]; pH 8 TRIS buffer, 0.403/0.667): 60%
- Absorbance Readings (trichomonal hydrolases [7]; with vaginal fluid supernatant, Acetate pH 5.1): 0.082
- Absorbance Readings (trichomonal hydrolases [7]; with vaginal fluid supernatant, Borate pH 9.2): 0.089
- Absorbance Readings (trichomonal hydrolases [7]; with vaginal fluid supernatant, Gly-gly pH 2.8): 0.085
- Absorbance Readings (trichomonal hydrolases [7]; with vaginal fluid supernatant, HEPES pH 7.5): 0.386
- Absorbance Readings (trichomonal hydrolases [7]; with vaginal fluid supernatant, MOPS pH 7.0): 0.313
- Absorbance Readings (trichomonal hydrolases [7]; with vaginal fluid supernatant, TRIS pH 8.0): 0.403
- Absorbance Readings (trichomonal hydrolases [7]; without vaginal fluid supernatant, Acetate pH 5.1): 0.792
- Absorbance Readings (trichomonal hydrolases [7]; without vaginal fluid supernatant, Borate pH 9.2): 0.172
- Absorbance Readings (trichomonal hydrolases [7]; without vaginal fluid supernatant, Gly-gly pH 2.8): 0.631
- Absorbance Readings (trichomonal hydrolases [7]; without vaginal fluid supernatant, HEPES pH 7.5): 0.738
- Absorbance Readings (trichomonal hydrolases [7]; without vaginal fluid supernatant, MOPS pH 7.0): 0.638
- Absorbance Readings (trichomonal hydrolases [7]; without vaginal fluid supernatant, TRIS pH 8.0): 0.667

SMILES: Cc1cc(=O)oc2cc(NC(=O)[C@H](CCCNC(=N)N)NC(=O)[C@H](CCCCN)NC(=O)[C@H](CCCCN)NC(=O)OCc3ccccc3)ccc12 [ZKKR-AMC, CBZ-Lys-Lys-Arg-AMC] (Cbz-Lys-Lys-Arg-{AMC})
- Color Scores: Whole normal vaginal fluid ([1]; pH 5 acetate): 0.5
- Color Scores: Whole normal vaginal fluid ([1]; pH 8 TRIS): 2
- Color Scores: Trichomonal hydrolases + NVS (trichomonal hydrolases [2]; pH 5 acetate): 0.099
- Color Scores: Trichomonal hydrolases (trichomonal hydrolases [2]; pH 5 acetate): 0.225
- Color Scores: Trichomonal hydrolases + NVS (trichomonal hydrolases [2]; pH 8 TRIS): 0.352
- Color Scores: Trichomonal hydrolases (trichomonal hydrolases [2]; pH 8 TRIS): 0.357
